Results taken from patent publication US20170190671A1, “BIS(ARYL)CATECHOL DERIVATIVES AS HERBICIDES” (E I DU PONT DE NEMOURS AND COMPANY, priority 2014, published 2017).

Experiments:
Type in all cases: in vivo
[1] = tested on: barnyardgrass (Echinochloa crus-galli); experiment: Test C preemergence; conditions: Echinochloa crus-galli, pre-emergence, preemergence, scale 0 to 100, read-out: Plant response rating, Barnyardgrass
Method in brief: (§1)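 Seeds in loam-sand soil were treated preemergence, and plants at the 1- to 4-leaf stage (2-18 cm) in peat-based medium were sprayed postemergence, with test chemicals in a non-phytotoxic solvent containing surfactant. After 13-15 days in a greenhouse, response was rated visually against controls from 0 (no effect) to 100 (complete control).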

soybean (Glycine max) [2] = experiment: Test C preemergence; conditions: Glycine max, pre-emergence, preemergence, scale 0 to 100, read-out: Plant response rating, Soybean
Method in brief: as §1

[3] = tested on: winter wheat (Triticum aestivum); experiment: Test C preemergence; conditions: Triticum aestivum, pre-emergence, 336 h, preemergence, scale 0 to 100, read-out: Plant response rating, Wheat
Method in brief: as §1

[4] = tested on: johnsongrass (Sorghum halepense); experiment: Test C preemergence; conditions: Sorghum halepense, pre-emergence, 336 h, preemergence, scale 0 to 100, read-out: Plant response rating, Johnsongrass
Method in brief: as §1

[5] = tested on: Italian ryegrass (Lolium multiflorum); experiment: Test C preemergence; conditions: Lolium multiflorum, pre-emergence, 336 h, preemergence, scale 0 to 100, read-out: Plant response rating, Ryegrass, Italian
Method in brief: as §1

[6] = tested on: large (Lg) crabgrass (Digitaria sanguinalis); experiment: Test C preemergence; conditions: Digitaria sanguinalis, pre-emergence, 336 h, preemergence, scale 0 to 100, read-out: Plant response rating, Crabgrass, Large
Method in brief: as §1

[7] = tested on: oilseed rape (Brassica napus); experiment: Test C preemergence; conditions: Brassica napus, pre-emergence, preemergence, scale 0 to 100, read-out: Plant response rating, Oilseed Rape
Method in brief: as §1

[8] = tested on: waterhemp (common waterhemp, Amaranthus rudis); experiment: Test C preemergence; conditions: Amaranthus tuberculatus, pre-emergence, preemergence, scale 0 to 100, read-out: Plant response rating, Waterhemp
Method in brief: as §1

[9] = tested on: lambsquarters (Chenopodium album); experiment: Test C preemergence; conditions: Chenopodium album, pre-emergence, 336 h, preemergence, scale 0 to 100, read-out: Plant response rating, Lambsquarters
Method in brief: as §1

[10] = tested on: yellow nutsedge (Cyperus esculentus); experiment: Test C preemergence; conditions: Cyperus, pre-emergence, 336 h, preemergence, scale 0 to 100, read-out: Plant response rating, Nutsedge, Yellow
Method in brief: as §1

[11] = tested on: pigweed (Amaranthus retroflexus); experiment: Test C preemergence; conditions: Amaranthus retroflexus, pre-emergence, 336 h, preemergence, scale 0 to 100, read-out: Plant response rating, Pigweed
Method in brief: as §1

[12] = tested on: morningglory (Ipomoea coccinea); experiment: Test C preemergence; conditions: Ipomoea, pre-emergence, 336 h, preemergence, scale 0 to 100, read-out: Plant response rating, Morningglory
Method in brief: as §1

[13] = tested on: velvetleaf (Abutilon theophrasti); experiment: Test C preemergence; conditions: Abutilon theophrasti, pre-emergence, preemergence, scale 0 to 100, read-out: Plant response rating, Velvetleaf
Method in brief: as §1

[14] = tested on: giant foxtail (Setaria faberii); experiment: Test C preemergence; conditions: Setaria faberi, pre-emergence, 336 h, preemergence, scale 0 to 100, read-out: Plant response rating, Foxtail, Giant
Method in brief: as §1

[15] = tested on: blackgrass (Alopecurus myosuroides); experiment: Test C preemergence; conditions: Alopecurus myosuroides, pre-emergence, 336 h, preemergence, scale 0 to 100, read-out: Plant response rating, Blackgrass
Method in brief: as §1

corn (Zea mays) [16] = experiment: Test C preemergence; conditions: Zea mays, pre-emergence, 336 h, preemergence, scale 0 to 100
Method in brief: as §1

soybean (Glycine max) [17] = experiment: Test C postemergence; conditions: Glycine max, post-emergence, Postemergence, scale 0 to 100, read-out: Plant response rating, Soybean
Method in brief: as §1

[18] = tested on: ragweed (common ragweed, Ambrosia elatior); experiment: Test C postemergence; conditions: Ambrosia artemisiifolia, post-emergence, 336 h, Postemergence, scale 0 to 100, read-out: Plant response rating, Ragweed
Method in brief: as §1

[19] = tested on: galium (catchweed bedstraw, Galium aparine); experiment: Test C postemergence; conditions: Galium, post-emergence, 336 h, Postemergence, scale 0 to 100, read-out: Plant response rating, Galium
Method in brief: as §1

[20] = tested on: waterhemp (common waterhemp, Amaranthus rudis); experiment: Test C postemergence; conditions: Amaranthus tuberculatus, post-emergence, Postemergence, scale 0 to 100, read-out: Plant response rating, Waterhemp
Method in brief: as §1

[21] = tested on: lambsquarters (Chenopodium album); experiment: Test C postemergence; conditions: Chenopodium album, post-emergence, 336 h, Postemergence, scale 0 to 100, read-out: Plant response rating, Lambsquarters
Method in brief: as §1

corn (Zea mays) [22] = experiment: Test C postemergence; conditions: Zea mays, post-emergence, 336 h, Postemergence, scale 0 to 100
Method in brief: as §1

Compound `Fc1cnc(Oc2c(Cl)cccc2Oc2ncc(Cl)cn2)nc1` [Compound 18, 5-chloro-2-[5-chloro-6-[(5-fluoro-2-pyrimidinyl)oxy]phenoxy]pyrimidine] has a pest or weed control at 31 g/ha ([1]; 31 g ai/ha) of 75%, a pest or weed control at 62 g/ha ([1]; 62 g ai/ha) of 100% and a pest or weed control at 125 g/ha ([1]; 125 g ai/ha) of 100%. The pest or weed control at 250 g/ha ([1]; 250 g ai/ha) was 100%, the plant injury at 31 g/ha (soybean (Glycine max) [2]; 31 g ai/ha) was 60% and the plant injury at 62 g/ha (soybean (Glycine max) [2]; 62 g ai/ha) was 80%. The plant injury at 125 g/ha (soybean (Glycine max) [2]; 125 g ai/ha) was 90%, the plant injury at 250 g/ha (soybean (Glycine max) [2]; 250 g ai/ha) was 90% and the plant injury at 31 g/ha ([3]; 31 g ai/ha) was 0%. It also gave a plant injury at 62 g/ha ([3]; 62 g ai/ha) of 15%, a plant injury at 125 g/ha ([3]; 125 g ai/ha) of 70% and a plant injury at 250 g/ha ([3]; 250 g ai/ha) of 85%. For the same compound, the pest or weed control at 31 g/ha ([4]; 31 g ai/ha) was 50%, the pest or weed control at 62 g/ha ([4]; 62 g ai/ha) was 70% and the pest or weed control at 125 g/ha ([4]; 125 g ai/ha) was 90%. For the same compound, the pest or weed control at 31 g/ha ([5]; 31 g ai/ha) was 30%, the pest or weed control at 62 g/ha ([5]; 62 g ai/ha) was 70% and the pest or weed control at 125 g/ha ([5]; 125 g ai/ha) was 85%. For the same compound, the pest or weed control at 250 g/ha ([5]; 250 g ai/ha) was 95%, the pest or weed control at 31 g/ha ([6]; 31 g ai/ha) was 100% and the pest or weed control at 62 g/ha ([6]; 62 g ai/ha) was 100%. For the same compound, the pest or weed control at 125 g/ha ([6]; 125 g ai/ha) was 100%, the plant injury at 31 g/ha ([7]; 31 g ai/ha) was 100% and the plant injury at 62 g/ha ([7]; 62 g ai/ha) was 100%. For the same compound, the plant injury at 125 g/ha ([7]; 125 g ai/ha) was 100%, the plant injury at 250 g/ha ([7]; 250 g ai/ha) was 100% and the pest or weed control at 31 g/ha ([8]; 31 g ai/ha) was 100%. The pest or weed control at 62 g/ha ([8]; 62 g ai/ha) was 100%, the pest or weed control at 125 g/ha ([8]; 125 g ai/ha) was 100% and the pest or weed control at 250 g/ha ([8]; 250 g ai/ha) was 100%. It also gave a pest or weed control at 31 g/ha ([9]; 31 g ai/ha) of 85%, a pest or weed control at 62 g/ha ([9]; 62 g ai/ha) of 95% and a pest or weed control at 125 g/ha ([9]; 125 g ai/ha) of 95%. It also gave a pest or weed control at 31 g/ha ([10]; 31 g ai/ha) of 0%, a pest or weed control at 62 g/ha ([10]; 62 g ai/ha) of 25% and a pest or weed control at 125 g/ha ([10]; 125 g ai/ha) of 25%. The pest or weed control at 31 g/ha ([11]; 31 g ai/ha) was 100%, the pest or weed control at 62 g/ha ([11]; 62 g ai/ha) was 100% and the pest or weed control at 125 g/ha ([11]; 125 g ai/ha) was 100%. The pest or weed control at 31 g/ha ([12]; 31 g ai/ha) was 10%, the pest or weed control at 62 g/ha ([12]; 62 g ai/ha) was 60% and the pest or weed control at 125 g/ha ([12]; 125 g ai/ha) was 70%. The pest or weed control at 31 g/ha ([13]; 31 g ai/ha) was 85%, the pest or weed control at 62 g/ha ([13]; 62 g ai/ha) was 100% and the pest or weed control at 125 g/ha ([13]; 125 g ai/ha) was 100%. It also gave a pest or weed control at 250 g/ha ([13]; 250 g ai/ha) of 100%, a pest or weed control at 31 g/ha ([14]; 31 g ai/ha) of 98% and a pest or weed control at 62 g/ha ([14]; 62 g ai/ha) of 100%. It also gave a pest or weed control at 125 g/ha ([14]; 125 g ai/ha) of 100%, a pest or weed control at 31 g/ha ([15]; 31 g ai/ha) of 15% and a pest or weed control at 62 g/ha ([15]; 62 g ai/ha) of 90%. The pest or weed control at 125 g/ha ([15]; 125 g ai/ha) was 95%, the Corn plant response rating (crop injury, 0 = no effect, 100 = complete kill) at 31 g/ha (corn (Zea mays) [16]; 31 g ai/ha) was 10% and the Corn plant response rating (crop injury, 0 = no effect, 100 = complete kill) at 62 g/ha (corn (Zea mays) [16]; 62 g ai/ha) was 40%. For the same compound, the Corn plant response rating (crop injury, 0 = no effect, 100 = complete kill) at 125 g/ha (corn (Zea mays) [16]; 125 g ai/ha) was 60%, the plant injury at 31 g/ha (soybean (Glycine max) [17]; 31 g ai/ha) was 75% and the plant injury at 62 g/ha (soybean (Glycine max) [17]; 62 g ai/ha) was 85%. It also gave a plant injury at 125 g/ha (soybean (Glycine max) [17]; 125 g ai/ha) of 90%, a plant injury at 250 g/ha (soybean (Glycine max) [17]; 250 g ai/ha) of 95% and a pest or weed control at 31 g/ha ([18]; 31 g ai/ha) of 65%. For the same compound, the pest or weed control at 62 g/ha ([18]; 62 g ai/ha) was 75%, the pest or weed control at 125 g/ha ([18]; 125 g ai/ha) was 90% and the pest or weed control at 250 g/ha ([18]; 250 g ai/ha) was 95%. The pest or weed control at 31 g/ha ([19]; 31 g ai/ha) was 70%, the pest or weed control at 62 g/ha ([19]; 62 g ai/ha) was 90% and the pest or weed control at 125 g/ha ([19]; 125 g ai/ha) was 95%. It also gave a pest or weed control at 250 g/ha ([19]; 250 g ai/ha) of 95%, a pest or weed control at 31 g/ha ([20]; 31 g ai/ha) of 80% and a pest or weed control at 62 g/ha ([20]; 62 g ai/ha) of 85%. For the same compound, the pest or weed control at 125 g/ha ([20]; 125 g ai/ha) was 95%, the pest or weed control at 250 g/ha ([20]; 250 g ai/ha) was 98% and the pest or weed control at 31 g/ha ([21]; 31 g ai/ha) was 65%. The pest or weed control at 62 g/ha ([21]; 62 g ai/ha) was 90%, the pest or weed control at 125 g/ha ([21]; 125 g ai/ha) was 95% and the pest or weed control at 250 g/ha ([21]; 250 g ai/ha) was 95%. For the same compound, the Corn plant response rating (crop injury, 0 = no effect, 100 = complete kill) at 31 g/ha (corn (Zea mays) [22]; 31 g ai/ha) was 5%, the Corn plant response rating (crop injury, 0 = no effect, 100 = complete kill) at 62 g/ha (corn (Zea mays) [22]; 62 g ai/ha) was 5% and the Corn plant response rating (crop injury, 0 = no effect, 100 = complete kill) at 125 g/ha (corn (Zea mays) [22]; 125 g ai/ha) was 20%. The Corn plant response rating (crop injury, 0 = no effect, 100 = complete kill) at 250 g/ha (corn (Zea mays) [22]; 250 g ai/ha) was 55%.
